The subject of assay [1] is IL1-β. Description: Inhibition of LPS-induced IL1-β in normal human PBMC (ELISA). The class given is cell-based. The settings on record: for IL-1β: LPS-stimulated PBMC supernatant; for IL-1βInhibition Ratio (%): LPS-stimulated PBMC. An excerpt:
(§1) Materials: • 1) Cell: PBMC (Peripheral Blood […]) • 2) Drugs: Sophora flavescens flavonoids extract and Kurarinone (Exp. 1) • 3) Positive control: Dexamethason (DEX) • 4) Reagents: Ficoll-Paque Plus (Amersham Bioscience), LPS and dexamethason (CalBiochem.), TNFa ELISA (Enzyme Linked Immunosorbent Assay) Kit and IL1-β ELISA Kit (Jingmei Bioengineer Technology), DMSO (Dimethylsulfoxide) (Sigma)
(§2) a. PBMC cells are isolated from fresh blood by using of Ficoll-Paque Plus reagent according to the protocol that the manufacturer recommends. Cells are suspended in RPMI 1640 media containing 10% FBS. 100 μl of 1×10^5 cells/ml is seeded in each well of 96 well plate, 1×10^4 cells total in each well and three wells for each reaction.
(§3) b. Samples are added into cells (final concentrations are 10, 30, 100 ug/ml, respectively. Sample volume that is added into each well is 10 μl). Final concentration of the positive control, dexamethason is 10 μM. 10 μl of media is added into the cells as a negative control. Then the plate is incubated in 37° C., 5% CO2 incubator for 15 minutes, 10 μl of 100 μg/ml LPS was added to each well except for negative controls. Incubate in 37° C., 5% CO2 incubator overnight.
(§4) c. Spin the plate at 1000 rpm for 15 minutes, transfer supernatant from each well to a new plate, measure the concentrations of TNFα and IL1-β by using assay kits. [formula]
A general note: ELISA stands for enzyme-linked immunosorbent assay.

Assay [2] deals with TNFα. Description: Inhibition of LPS-induced TNFα in normal human PBMC (ELISA). The assay is classed as cell-based. The settings on record: for TNFa: LPS-stimulated PBMC supernatant; for TNFa Inhibition Ratio (%): LPS-stimulated PBMC.
Description: as §1, §2, §3, §4

Structures are written as SMILES.

For the compound `C[C@@H]1C[C@H]2[C@@H]3CCC4=CC(=O)C=C[C@]4(C)[C@@]3(F)[C@@H](O)C[C@]2(C)[C@@]1(O)C(=O)CO` [DEX, Dexamethason, reference compound], in assay [1] (positive control 10 uM), the “IL-1β” value worked out at 275.6 ± 5.3 pg/mL and the “IL-1βInhibition Ratio (%)” value was 72.9 ± 1.6%. In addition, in assay [2] (positive control 10 uM), the “TNFa” value was 120.9 ± 3.4 pg/mL and the “TNFa Inhibition Ratio (%)” value was 61.3 ± 1.9%.

Take `C=C(C)[C@H](CC=C(C)C)Cc1c(O)cc(OC)c2c1O[C@H](c1ccc(O)cc1O)CC2=O` [Kurarinone, 4H-1-Benzopyran-4-one, 2-(2,4-dihydroxyphenyl)-2,3-dihydro-7-hydroxy-5-methoxy-8-[5-methyl-2-(1-methylethenyl)-4-hexenyl]-]: the “IL-1β” value was determined as 129.8 ± 8.4 pg/mL in assay [1] (sample 10 μg/ml), 80.5 ± 3.7 pg/mL in assay [1] (sample 30 μg/ml) and 3.1 ± 0.3 pg/mL in assay [1] (sample 100 μg/ml). Moreover, the figures for the “IL-1βInhibition Ratio (%)” value in assay [1] (sample 10 μg/ml), in assay [1] (sample 30 μg/ml) and in assay [1] (sample 100 μg/ml) were 62.4 ± 4.2%, 75.0 ± 4.1% and 99.0 ± 0.5%, respectively. For the same compound, the “TNFa” value amounted to 92.2 ± 2.7 pg/mL in assay [2] (sample 10 μg/ml), 39.5 ± 1.5 pg/mL in assay [2] (sample 30 μg/ml) and 2.1 ± 0.3 pg/mL in assay [2] (sample 100 μg/ml). Also, the “TNFa Inhibition Ratio (%)” value worked out at 52.5 ± 4.2% in assay [2] (sample 10 μg/ml), 78.5 ± 4.1% in assay [2] (sample 30 μg/ml) and 98.8 ± 2.1% in assay [2] (sample 100 μg/ml).
